The source of these data is patent US11840545B1, “Spirooxindole-copper complex as novel efficient anticorrosion agent for C-steel” (KING FAISAL UNIVERSITY, priority 2023, dated 2023).

Assay [1] is described as follows: Impedance study of corrosion inhibition, equivalent circuit model CPE with Diffusion. Conditions: for IE: impedance, C-steel, 1M HCl, 298 K; for % inhibition from Impedance: summary Table 16, C-steel in 1 M HCl; for % Inhibition from Impedance studies: summary Table 17, C-steel in 1 M HCl. The text has this:
(§1) In an embodiment, the thus formed CuL copper complex can undergo anticorrosion studies by adding the obtained CuL copper complex to hydrochloric acid (for example, at 1M) using a C-steel electrode.
(§2) The % inhibition of Spiro compounds SP34, SP37 and SP311 and their copper complexes for C-steel in hydrochloric acid solution (1M) were computed by Impedance and Polarization studies. The model used for the electrochemical equivalent circuit to fit the impedance for anticorrosion studies of Carbon steel (C-steel) by Spiro inhibitors was CPE with diffusion as shown in FIG. 7.

A short description of assay [2]: Polarization (Tafel) study of corrosion inhibition. Conditions: for IE: polarization, C-steel, 1M HCl, 298 K; for % inhibition from Tafel: summary Table 16, C-steel in 1 M HCl; for % Inhibition from Tafel plots: summary Table 18, C-steel in 1 M HCl.
From the text: as §1, §2

With `Cc1[nH]nnc1C(=O)[C@H]1[C@H](c2cccc([N+](=O)[O-])c2)C2CSCN2[C@]12C(=O)Nc1cc(Cl)ccc12` (stereo partly drawn) [SP 37, (3R,6'S,7′R)-6-chloro-6′-(5-methyl-1H-1,2,3-triazole-4-carbonyl)-7′-(3-nitrophenyl)-1′,6′,7′,7a′-tetrahydro-3′H-spiro[indoline-3,5′-pyrrolo[1,2-c]thiazol]-2-one], the IE in assay [1] (0.039 mM) was determined as 21.25%; in assay [1] (0.078 mM), 46.85%; in assay [1] (0.117 mM), 56.53%; in assay [2] (0.039 mM), 49.0%; in assay [2] (0.078 mM), 72.7%; in assay [2] (0.117 mM), 82.1%. For the same compound, the “% inhibition from Impedance” value in assay [1] is on record as 56.53%. Moreover, in assay [1], the “% Inhibition from Impedance studies” value was 56.53%. Moreover, the “% inhibition from Tafel” value in assay [2] is recorded as 82.1%. For the same compound, the “% Inhibition from Tafel plots” value in assay [2] came out at 82.1%.
For the compound `Cc1[nH]nnc1C(=O)[C@H]1[C@H](c2cccc(Br)c2)C2CSCN2[C@]12C(=O)Nc1cc(Cl)ccc12` (stereo partly drawn) [SP 311, (3R,6'S,7′R)-7′-(3-bromophenyl)-6-chloro-6′-(5-methyl-1H-1,2,3-triazole-4-carbonyl)-1′,6′,7′,7a′-tetrahydro-3′H-spiro[indoline-3,5′-pyrrolo[1,2-c]thiazol]-2-one], the IE in assay [1] (0.036 mM) is recorded as 14.26%; in assay [1] (0.073 mM) it was 8.96%; in assay [1] (0.109 mM) it was 62.89%; in assay [2] (0.036 mM) it was −1.5%; in assay [2] (0.073 mM), 13.0%; in assay [2] (0.109 mM) it was 81.6%. For the same compound, the “% inhibition from Impedance” value in assay [1] was 62.89%. Besides, in assay [1], the “% Inhibition from Impedance studies” value is given as 62.89%. The “% inhibition from Tafel” value in assay [2] stood at 81.6%. Further, in assay [2], the “% Inhibition from Tafel plots” value was 81.6%.
Regarding `Cc1[nH]nnc1C(=O)[C@H]1[C@H](c2ccc(Cl)cc2Cl)C2CSCN2[C@]12C(=O)Nc1cc(Cl)ccc12` (stereo partly drawn) [SP 34, (3R,6'S,7′R)-6-chloro-7′-(2,4-dichlorophenyl)-6′-(5-methyl-1H-1,2,3-triazole-4-carbonyl)-1′,6′,7′,7a′-tetrahydro-3′H-spiro[indoline-3,5′-pyrrolo[1,2-c]thiazol]-2-one], the IE in assay [1] (0.037 mM) was 82.48%; in assay [1] (0.075 mM), 94.25%; in assay [1] (0.112 mM), 97.37%; in assay [2] (0.037 mM), 90.5%; in assay [2] (0.075 mM) it was 97.1%; in assay [2] (0.112 mM), 98.6%. Besides, the “% inhibition from Impedance” value in assay [1] is recorded as 96.97%. For the same compound, the “% Inhibition from Impedance studies” value in assay [1] came to 96.97%. For the same compound, the “% inhibition from Tafel” value in assay [2] amounted to 98.6%. The “% Inhibition from Tafel plots” value in assay [2] turned out to be 98.6%.
